ChEMBL document CHEMBL4507269, “Data for DCP probe BAY-386” (2021)

Tests used:
[1] = biological target: Cyclin-dependent kinase 11B (Homo sapiens) (UniProt P21127); settings: Compound concentration 1000.0 nM
[2] = biological target: Myosin-IIIa (Homo sapiens) (UniProt Q8NEV4); settings: Compound concentration 1000.0 nM
[3] = biological target: Tyrosine-protein kinase receptor TYRO3 (Homo sapiens) (UniProt Q06418); settings: Compound concentration 1000.0 nM
[4] = tested on: ALK tyrosine kinase receptor (Homo sapiens), Q9UM73 [C1156Y]; settings: Compound concentration 1000.0 nM
[5] = biological target: Casein kinase I isoform gamma-3 (Homo sapiens) (UniProt Q9Y6M4); settings: Compound concentration 1000.0 nM
[6] = tested on: Receptor-type tyrosine-protein kinase FLT3 (Homo sapiens), P36888 [UNDEFINED MUTATION]; settings: Compound concentration 1000.0 nM
[7] = biological target: cAMP-dependent protein kinase catalytic subunit beta (Homo sapiens) (UniProt P22694); settings: Compound concentration 1000.0 nM
[8] = biological target: Dual specificity protein kinase CLK1 (Homo sapiens) (UniProt P49759); settings: Compound concentration 1000.0 nM
[9] = biological target: Serine/threonine-protein kinase Chk2 (Homo sapiens) (UniProt O96017); settings: Compound concentration 1000.0 nM
[10] = biological target: Serine/threonine-protein kinase PAK 5 (Homo sapiens) (UniProt Q9P286); settings: Compound concentration 1000.0 nM
[11] = tested on: eIF-2-alpha kinase GCN2 (Homo sapiens), Q9P2K8 [S808G]; settings: Compound concentration 1000.0 nM
[12] = biological target: NUAK family SNF1-like kinase 1 (Homo sapiens) (UniProt O60285); settings: Compound concentration 1000.0 nM
[13] = biological target: Receptor-interacting serine/threonine-protein kinase 1 (Homo sapiens) (UniProt Q13546); settings: Compound concentration 1000.0 nM
[14] = biological target: Cyclin-dependent kinase 16 (Homo sapiens) (UniProt Q00536); settings: Compound concentration 1000.0 nM
[15] = biological target: Ephrin type-B receptor 4 (Homo sapiens) (UniProt P54760); settings: Compound concentration 1000.0 nM
[16] = biological target: Serine/threonine-protein kinase SIK2 (Homo sapiens) (UniProt Q9H0K1); settings: Compound concentration 1000.0 nM
[17] = biological target: Dual specificity mitogen-activated protein kinase kinase 3 (Homo sapiens) (UniProt P46734); settings: Compound concentration 1000.0 nM
[18] = biological target: Serine/threonine-protein kinase Nek2 (Homo sapiens) (UniProt P51955); settings: Compound concentration 1000.0 nM
[19] = biological target: Serine/threonine-protein kinase TBK1 (Homo sapiens) (UniProt Q9UHD2); settings: Compound concentration 1000.0 nM
[20] = biological target: Death-associated protein kinase 2 (Homo sapiens) (UniProt Q9UIK4); settings: Compound concentration 1000.0 nM
[21] = tested on: Mast/stem cell growth factor receptor Kit (Homo sapiens), P10721 [V559D,T670I]; settings: Compound concentration 1000.0 nM
[22] = tested on: Mast/stem cell growth factor receptor Kit (Homo sapiens), P10721 [V559D]; settings: Compound concentration 1000.0 nM
[23] = biological target: Serine/threonine-protein kinase DCLK3 (Homo sapiens) (UniProt Q9C098); settings: Compound concentration 1000.0 nM
[24] = biological target: Serine/threonine-protein kinase 32C (Homo sapiens) (UniProt Q86UX6); settings: Compound concentration 1000.0 nM
[25] = biological target: Dual serine/threonine and tyrosine protein kinase (Homo sapiens) (UniProt Q6XUX3); settings: Compound concentration 1000.0 nM
[26] = biological target: Protein-tyrosine kinase 6 (Homo sapiens) (UniProt Q13882); settings: Compound concentration 1000.0 nM
[27] = biological target: Inhibitor of nuclear factor kappa-B kinase subunit beta (Homo sapiens) (UniProt O14920); settings: Compound concentration 1000.0 nM
[28] = biological target: Tyrosine-protein kinase HCK (Homo sapiens) (UniProt P08631); settings: Compound concentration 1000.0 nM
[29] = tested on: Hepatocyte growth factor receptor (Homo sapiens), P08581 [M1250T]; settings: Compound concentration 1000.0 nM
[30] = tested on: Epidermal growth factor receptor (Homo sapiens), P00533 [G719C]; settings: Compound concentration 1000.0 nM
[31] = biological target: Serine/threonine-protein kinase Nek5 (Homo sapiens) (UniProt Q6P3R8); settings: Compound concentration 1000.0 nM
[32] = biological target: Serine/threonine-protein kinase Nek7 (Homo sapiens) (UniProt Q8TDX7); settings: Compound concentration 1000.0 nM
[33] = biological target: Phosphatidylinositol 5-phosphate 4-kinase type-2 beta (Homo sapiens) (UniProt P78356); settings: Compound concentration 1000.0 nM
[34] = biological target: Myosin light chain kinase (Homo sapiens) (UniProt Q32MK0); settings: Compound concentration 1000.0 nM
[35] = biological target: Serine/threonine-protein kinase D2 (Homo sapiens) (UniProt Q9BZL6); settings: Compound concentration 1000.0 nM
[36] = biological target: Serine/threonine-protein kinase Nek6 (Homo sapiens) (UniProt Q9HC98); settings: Compound concentration 1000.0 nM
[37] = biological target: STE20/SPS1-related proline-alanine-rich protein kinase (Homo sapiens) (UniProt Q9UEW8); settings: Compound concentration 1000.0 nM
[38] = biological target: Phosphatidylinositol 4-phosphate 3-kinase C2 domain-containing subunit beta (Homo sapiens) (UniProt O00750); settings: Compound concentration 1000.0 nM
[39] = biological target: Tyrosine-protein kinase receptor Tie-1 (Homo sapiens) (UniProt P35590); settings: Compound concentration 1000.0 nM
[40] = biological target: ALK tyrosine kinase receptor (Homo sapiens) (UniProt Q9UM73); settings: Compound concentration 1000.0 nM
[41] = tested on: Epidermal growth factor receptor (Homo sapiens), P00533 [T790M]; settings: Compound concentration 1000.0 nM
[42] = biological target: Fibroblast growth factor receptor 2 (Homo sapiens) (UniProt P21802); settings: Compound concentration 1000.0 nM
[43] = biological target: Somatostatin receptor type 4 (Homo sapiens) (UniProt P31391); assay: sst4 (h) Eurofins-Cerep Cellular and Nuclear Receptor Functional Assays; settings: Compound concentration 10.0 uM
[44] = biological target: Serine/threonine-protein kinase Nek1 (Homo sapiens) (UniProt Q96PY6); settings: Compound concentration 1000.0 nM
[45] = biological target: Cyclin-dependent kinase-like 2 (Homo sapiens) (UniProt Q92772); settings: Compound concentration 1000.0 nM

Chain of Somatostatin receptor type 4 (Homo sapiens) (P31391 whole entry): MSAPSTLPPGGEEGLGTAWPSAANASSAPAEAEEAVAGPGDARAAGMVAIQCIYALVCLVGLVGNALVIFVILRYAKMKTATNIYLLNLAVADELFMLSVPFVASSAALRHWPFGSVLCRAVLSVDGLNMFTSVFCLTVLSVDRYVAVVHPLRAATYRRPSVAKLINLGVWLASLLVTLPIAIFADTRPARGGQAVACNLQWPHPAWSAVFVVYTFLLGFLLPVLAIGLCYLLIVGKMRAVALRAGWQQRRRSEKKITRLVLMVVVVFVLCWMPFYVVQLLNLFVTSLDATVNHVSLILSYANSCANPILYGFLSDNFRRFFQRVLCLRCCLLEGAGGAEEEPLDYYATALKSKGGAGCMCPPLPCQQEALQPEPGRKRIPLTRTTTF
Chain of Tyrosine-protein kinase receptor Tie-1 (Homo sapiens) (P35590 whole entry): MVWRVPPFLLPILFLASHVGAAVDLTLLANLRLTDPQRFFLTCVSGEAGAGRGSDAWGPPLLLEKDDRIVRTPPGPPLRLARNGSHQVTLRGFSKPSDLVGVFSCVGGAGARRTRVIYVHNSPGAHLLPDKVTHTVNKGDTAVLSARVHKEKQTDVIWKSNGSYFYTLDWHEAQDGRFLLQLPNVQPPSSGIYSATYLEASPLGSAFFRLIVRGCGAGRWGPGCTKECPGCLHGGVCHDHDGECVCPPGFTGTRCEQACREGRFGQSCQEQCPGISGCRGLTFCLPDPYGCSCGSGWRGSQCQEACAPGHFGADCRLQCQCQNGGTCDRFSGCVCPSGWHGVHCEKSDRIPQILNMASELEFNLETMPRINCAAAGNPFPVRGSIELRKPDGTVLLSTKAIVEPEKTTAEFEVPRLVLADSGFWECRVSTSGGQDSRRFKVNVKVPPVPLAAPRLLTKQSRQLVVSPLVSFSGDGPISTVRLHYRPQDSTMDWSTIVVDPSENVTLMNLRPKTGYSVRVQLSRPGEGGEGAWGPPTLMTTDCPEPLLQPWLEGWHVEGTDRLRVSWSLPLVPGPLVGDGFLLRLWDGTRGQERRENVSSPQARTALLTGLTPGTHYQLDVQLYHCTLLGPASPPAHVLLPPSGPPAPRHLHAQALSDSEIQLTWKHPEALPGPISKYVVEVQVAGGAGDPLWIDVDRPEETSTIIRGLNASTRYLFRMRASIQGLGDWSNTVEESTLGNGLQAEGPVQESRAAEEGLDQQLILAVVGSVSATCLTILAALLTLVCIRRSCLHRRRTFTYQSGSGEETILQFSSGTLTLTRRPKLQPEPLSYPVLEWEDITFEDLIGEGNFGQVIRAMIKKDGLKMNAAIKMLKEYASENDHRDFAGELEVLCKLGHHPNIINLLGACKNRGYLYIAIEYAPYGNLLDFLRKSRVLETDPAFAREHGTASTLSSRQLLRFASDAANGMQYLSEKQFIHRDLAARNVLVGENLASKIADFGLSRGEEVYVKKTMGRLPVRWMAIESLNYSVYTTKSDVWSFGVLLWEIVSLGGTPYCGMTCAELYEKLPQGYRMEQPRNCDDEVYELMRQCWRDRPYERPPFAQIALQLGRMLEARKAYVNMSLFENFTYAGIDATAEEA
Chain of Phosphatidylinositol 5-phosphate 4-kinase type-2 beta (Homo sapiens) (P78356 whole entry): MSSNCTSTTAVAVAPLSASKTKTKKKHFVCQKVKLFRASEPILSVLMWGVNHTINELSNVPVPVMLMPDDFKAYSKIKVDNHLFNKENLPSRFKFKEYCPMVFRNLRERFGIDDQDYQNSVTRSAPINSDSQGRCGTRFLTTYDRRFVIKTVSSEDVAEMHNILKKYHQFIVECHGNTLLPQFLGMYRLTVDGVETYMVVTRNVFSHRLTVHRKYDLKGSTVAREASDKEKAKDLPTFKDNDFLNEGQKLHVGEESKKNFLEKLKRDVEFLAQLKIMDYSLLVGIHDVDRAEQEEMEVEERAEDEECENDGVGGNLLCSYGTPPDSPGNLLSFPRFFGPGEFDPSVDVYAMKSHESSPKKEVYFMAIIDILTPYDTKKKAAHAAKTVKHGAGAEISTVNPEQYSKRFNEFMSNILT
Chain of Cyclin-dependent kinase 16 (Homo sapiens) (Q00536 whole entry): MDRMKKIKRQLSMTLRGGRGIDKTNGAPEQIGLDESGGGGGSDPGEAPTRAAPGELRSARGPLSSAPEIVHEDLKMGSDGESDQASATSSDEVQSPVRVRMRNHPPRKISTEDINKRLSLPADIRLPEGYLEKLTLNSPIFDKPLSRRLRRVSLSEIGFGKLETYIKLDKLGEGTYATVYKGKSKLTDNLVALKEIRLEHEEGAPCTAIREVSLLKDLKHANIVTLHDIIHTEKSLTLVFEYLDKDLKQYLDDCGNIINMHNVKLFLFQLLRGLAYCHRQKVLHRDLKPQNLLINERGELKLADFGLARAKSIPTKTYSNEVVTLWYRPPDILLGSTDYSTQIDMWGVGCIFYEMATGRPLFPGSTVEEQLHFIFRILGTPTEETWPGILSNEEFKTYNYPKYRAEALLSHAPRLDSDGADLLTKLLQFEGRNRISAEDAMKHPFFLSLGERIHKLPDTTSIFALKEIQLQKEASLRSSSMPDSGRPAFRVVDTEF
Chain of ALK tyrosine kinase receptor (Homo sapiens) (Q9UM73 19-1620 limits assumed): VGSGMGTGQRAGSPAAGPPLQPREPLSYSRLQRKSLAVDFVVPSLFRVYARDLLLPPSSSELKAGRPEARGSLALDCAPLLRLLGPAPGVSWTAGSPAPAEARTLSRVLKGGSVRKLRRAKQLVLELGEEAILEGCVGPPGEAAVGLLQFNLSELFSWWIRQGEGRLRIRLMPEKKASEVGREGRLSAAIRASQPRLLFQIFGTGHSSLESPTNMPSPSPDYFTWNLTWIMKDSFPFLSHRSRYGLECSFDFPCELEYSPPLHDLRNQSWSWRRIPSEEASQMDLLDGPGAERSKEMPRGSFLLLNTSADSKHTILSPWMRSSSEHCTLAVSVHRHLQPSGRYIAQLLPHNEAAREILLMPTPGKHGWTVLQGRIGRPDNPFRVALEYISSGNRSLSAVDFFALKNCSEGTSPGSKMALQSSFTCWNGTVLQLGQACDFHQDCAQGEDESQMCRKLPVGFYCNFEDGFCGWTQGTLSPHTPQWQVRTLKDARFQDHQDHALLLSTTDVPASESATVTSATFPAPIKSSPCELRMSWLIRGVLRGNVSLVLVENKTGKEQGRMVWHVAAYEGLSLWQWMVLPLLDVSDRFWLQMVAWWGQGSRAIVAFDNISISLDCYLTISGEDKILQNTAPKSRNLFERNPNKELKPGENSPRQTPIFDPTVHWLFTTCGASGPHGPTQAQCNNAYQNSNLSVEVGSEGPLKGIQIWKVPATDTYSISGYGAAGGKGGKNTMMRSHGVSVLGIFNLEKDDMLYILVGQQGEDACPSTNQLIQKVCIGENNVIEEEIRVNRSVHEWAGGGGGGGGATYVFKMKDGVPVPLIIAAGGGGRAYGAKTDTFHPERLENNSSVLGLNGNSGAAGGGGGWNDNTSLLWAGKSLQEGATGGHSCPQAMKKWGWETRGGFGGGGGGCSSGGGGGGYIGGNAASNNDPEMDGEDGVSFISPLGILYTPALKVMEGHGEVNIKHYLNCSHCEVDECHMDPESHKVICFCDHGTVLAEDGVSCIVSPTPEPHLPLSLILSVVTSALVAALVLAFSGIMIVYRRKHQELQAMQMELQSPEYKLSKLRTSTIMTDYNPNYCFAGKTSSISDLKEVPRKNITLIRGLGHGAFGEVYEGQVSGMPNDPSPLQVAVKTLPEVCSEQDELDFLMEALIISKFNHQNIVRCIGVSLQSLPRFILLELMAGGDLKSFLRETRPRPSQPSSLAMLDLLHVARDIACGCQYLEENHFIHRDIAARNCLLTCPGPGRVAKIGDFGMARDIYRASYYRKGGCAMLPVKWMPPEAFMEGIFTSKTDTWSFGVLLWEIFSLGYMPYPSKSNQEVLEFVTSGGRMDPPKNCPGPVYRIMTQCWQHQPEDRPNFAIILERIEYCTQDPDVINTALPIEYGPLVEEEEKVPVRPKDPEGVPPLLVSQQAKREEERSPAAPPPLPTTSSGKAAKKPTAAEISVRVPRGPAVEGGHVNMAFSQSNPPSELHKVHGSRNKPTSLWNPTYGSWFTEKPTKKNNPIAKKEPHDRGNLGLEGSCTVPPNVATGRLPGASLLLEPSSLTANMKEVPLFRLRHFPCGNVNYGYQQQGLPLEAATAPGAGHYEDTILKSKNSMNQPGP
Chain of Serine/threonine-protein kinase Chk2 (Homo sapiens) (O96017 whole entry): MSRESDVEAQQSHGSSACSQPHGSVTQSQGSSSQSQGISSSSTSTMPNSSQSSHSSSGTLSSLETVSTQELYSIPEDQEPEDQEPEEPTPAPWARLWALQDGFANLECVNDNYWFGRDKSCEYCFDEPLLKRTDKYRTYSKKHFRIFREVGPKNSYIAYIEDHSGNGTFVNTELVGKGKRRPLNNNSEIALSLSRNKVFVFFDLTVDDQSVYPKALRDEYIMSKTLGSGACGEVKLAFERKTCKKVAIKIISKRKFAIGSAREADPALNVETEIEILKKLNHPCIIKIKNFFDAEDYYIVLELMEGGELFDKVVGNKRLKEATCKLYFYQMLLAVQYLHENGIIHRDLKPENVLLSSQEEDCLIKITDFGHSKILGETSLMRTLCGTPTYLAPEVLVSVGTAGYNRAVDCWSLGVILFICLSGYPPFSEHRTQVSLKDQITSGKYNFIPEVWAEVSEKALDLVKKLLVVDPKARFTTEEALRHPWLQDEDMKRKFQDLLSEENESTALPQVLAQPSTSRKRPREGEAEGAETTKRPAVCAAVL
Chain of Dual specificity protein kinase CLK1 (Homo sapiens) (P49759 whole entry, looked up): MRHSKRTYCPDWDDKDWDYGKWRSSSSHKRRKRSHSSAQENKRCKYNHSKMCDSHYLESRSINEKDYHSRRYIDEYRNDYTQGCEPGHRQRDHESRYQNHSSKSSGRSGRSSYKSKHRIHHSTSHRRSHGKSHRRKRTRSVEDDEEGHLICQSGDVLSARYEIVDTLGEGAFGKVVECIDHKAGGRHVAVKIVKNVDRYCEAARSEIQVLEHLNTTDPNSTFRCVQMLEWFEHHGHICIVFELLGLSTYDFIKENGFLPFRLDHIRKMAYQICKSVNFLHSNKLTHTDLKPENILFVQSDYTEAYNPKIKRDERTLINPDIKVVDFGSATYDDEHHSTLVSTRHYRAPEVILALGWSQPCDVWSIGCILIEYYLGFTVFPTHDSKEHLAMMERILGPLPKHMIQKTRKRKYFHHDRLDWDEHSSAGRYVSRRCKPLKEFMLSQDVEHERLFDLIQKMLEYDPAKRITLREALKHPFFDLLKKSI

For O=C(N1CCS(=O)(=O)CC1)N1C[C@H](c2ccc(OC(F)(F)F)cc2)C[C@H](c2nc(C3CC3)no2)C1 [BAY-386], the residual activity [1] was 100%, the residual activity [2] was 100% and the residual activity [3] was 98%. The residual activity [4] was 79%, the residual activity [5] was 100% and the residual activity [6] was 93%. The residual activity [7] was 100%, the residual activity [8] was 98% and the residual activity [9] was 100%. For the same molecule, the residual activity [10] was 100%, the residual activity [11] was 100% and the residual activity [12] was 97%. It also gave a residual activity [13] of 100%, a residual activity [14] of 100% and a residual activity [15] of 100%. It also gave a residual activity [16] of 100%, a residual activity [17] of 100% and a residual activity [18] of 100%. It also gave a residual activity [19] of 94%, a residual activity [20] of 100% and a residual activity [21] of 100%. The residual activity [22] was 100%, the residual activity [23] was 100% and the residual activity [24] was 93%. It also gave a residual activity [25] of 100%, a residual activity [26] of 100% and a residual activity [27] of 77%. It also gave a residual activity [28] of 100%, a residual activity [29] of 100% and a residual activity [30] of 97%. It also gave a residual activity [31] of 98%, a residual activity [32] of 100% and a residual activity [33] of 73%. It also gave a residual activity [34] of 79%, a residual activity [35] of 100% and a residual activity [36] of 98%. For the same molecule, the residual activity [37] was 100%, the residual activity [38] was 100% and the residual activity [39] was 100%. It also gave a residual activity [40] of 100%, a residual activity [41] of 100% and a residual activity [42] of 94%. The % Inhibition of Control Agonist Response (Mean n=2) [43] was -3.3%, the % of Control Agonist Response (Mean n=2) [43] was -13% and the residual activity [44] was 100%. It also gave a residual activity [45] of 100%.

For Cc1noc([C@H]2C[C@@H](c3ccc(C(F)(F)F)cc3)CN(C(=O)N3CCS(=O)(=O)C3)C2)n1 [BAY-448], the residual activity [1] was 100%, the residual activity [2] was 100% and the residual activity [3] was 100%. It also gave a residual activity [4] of 100%, a residual activity [5] of 100% and a residual activity [6] of 100%. It also gave a residual activity [7] of 100%, a residual activity [8] of 100% and a residual activity [9] of 100%. The residual activity [10] was 100%, the residual activity [11] was 28% and the residual activity [12] was 100%. For the same molecule, the residual activity [13] was 100%, the residual activity [14] was 100% and the residual activity [15] was 100%. The residual activity [16] was 100%, the residual activity [17] was 98% and the residual activity [18] was 100%. For the same molecule, the residual activity [19] was 68%, the residual activity [20] was 100% and the residual activity [21] was 100%. It also gave a residual activity [22] of 100%, a residual activity [23] of 100% and a residual activity [24] of 100%. It also gave a residual activity [25] of 94%, a residual activity [26] of 100% and a residual activity [27] of 80%. It also gave a residual activity [28] of 100%, a residual activity [29] of 100% and a residual activity [30] of 100%. It also gave a residual activity [31] of 100%, a residual activity [32] of 100% and a residual activity [33] of 100%. The residual activity [34] was 100%, the residual activity [35] was 100% and the residual activity [36] was 100%. The residual activity [37] was 95%, the residual activity [38] was 66% and the residual activity [39] was 89%. The residual activity [40] was 100%, the residual activity [41] was 77% and the residual activity [42] was 85%. It also gave a % Inhibition of Control Agonist Response (Mean n=2) [43] of 1.2%, a % of Control Agonist Response (Mean n=2) [43] of -2% and a residual activity [44] of 100%. It also gave a residual activity [45] of 100%.
